Assay [1] relates to IL-6-mediated phosphorylation of Stat3. Kind of assay: Immunoblot of IL-6-mediated Stat3 phosphorylation in HepG2 cells. The assay is classed as cell-based. Conditions: Homo sapiens, compound 60 min, then IL-6 30 ng/ml 30 min, read-out: pStat3 IC50, inhibition of IL-6-mediated Stat3 phosphorylation. The procedure: (§1) The human hepatocellular carcinoma cell line (HepG2) was grown in 6-well plates under standard conditions. Cells were pretreated with compounds (0, 1, 3, 10, 30, 100 and 300 µM) for 1 hour then stimulated under optimal conditions with either interleukin-6 (IL-6; 30 ng/ml for 30 min) to activate Stat3 or interferon gamma (IFN-γ; 30 ng/ml for 30 min) to activate Stat1 [28]. Cultures were then harvested and proteins extracted using high-salt buffer, as described. Briefly, extracts were mixed with 2× sodium dodecyl sulfate (SDS) sample buffer (125 mM Tris-HCL pH 6.8; 4% SDS; 20% glycerol; 10% 2-mercaptoethanol) at a 1∶1 ratio and heated for 5 minutes at 100°C. Proteins (20 µg) were separated by 7.5% SDS-PAGE and transferred to polyvinylidene fluoride (PVDF) membrane (Millipore, Waltham, MA) and immunoblotted. Prestained molecular weight markers (BioRad; Hercules, CA) were included in each gel. Membranes were probed serially with antibody against Stat1 pY701 or Stat3 pY705 followed by antibody against Stat1 or Stat3 (Transduction labs, Lexington, KY) then antibody against β–actin (Abcam, Cambridge, MA). Membranes were stripped between antibody probing using Restore™ Western Blot Stripping Buffer (Thermo Fisher Scientific Inc., Waltham, MA) per the manufacturer's instructions. Horseradish peroxidase-conjugated goat-anti-mouse IgG was used as the secondary antibody (Invitrogen Carlsbad, CA) and the membranes were developed with enhanced chemiluminescence (ECL) detection system (Amersham Life Sciences Inc.; Arlington Heights, IL.).
Figure 2 Effect of compounds on ligand-mediated Stat3 and Stat1 phosphorylation. […] Cells were then stimulated with IL-6 (30 ng/ml) for 30 min. Protein extracts of cells were separated by SDS-PAGE, blotted and developed serially with antibodies to pStat3, total Stat3 and β-actin. Blots were stripped between each antibody probing. Band intensities were quantified by densitometry. […] The best-fitting curve was determined using 4-Parameter Logistic Model/Dose Response/XLfit 4.2, IDBS software and was used to calculate the IC50 value (Table 1). […]

Assay [2] relates to IFN-γ-mediated Stat1 phosphorylation. Kind of assay: Immunoblot of IFN-γ-mediated Stat1 phosphorylation in HepG2 cells. The assay is classed as cell-based, human. Conditions: compound 300 µM 1 hour, IFN-γ 30 ng/ml 30 min. The procedure: as §1
Figure 2 Effect of compounds on ligand-mediated Stat3 and Stat1 phosphorylation. […] Cells were then stimulated with IL-6 (30 ng/ml) for 30 min. Protein extracts of cells were separated by SDS-PAGE, blotted and developed serially with antibodies to pStat3, total Stat3 and β-actin. Blots were stripped between each antibody probing. Band intensities were quantified by densitometry. The value of each pStat3 band was divided by its corresponding total Stat3 band intensity; the results were normalized to the DMSO-treated control value. This value was plotted as a function of the log compound concentration. The best-fitting curve was determined using 4-Parameter Logistic Model/Dose Response/XLfit 4.2, IDBS software and was used to calculate the IC50 value (Table 1). Each panel is representative of 3 or more experiments. In panel G, HepG2 cells were pretreated with DMSO alone or DMSO containing each of the compounds at a concentration of 300 µM for 60 min. Cells were then stimulated with IFN-γ (30 ng/ml) for 30 min. Protein extracts of cells were separated by SDS-PAGE and immunoblotted serially with antibodies to pStat1, total Stat1 and β-actin. Blots were stripped between each immunoblotting. The results shown are representative of 2 or more experiments.

The subject of assay [3] is MCF7. Kind of assay: Breast cancer cell line apoptosis assay (nucleosome ELISA). Conditions: Homo sapiens, 24 hr, read-out: EC50 apoptosis induction. The assay is classed as cell-based. The procedure: (§2) Human breast carcinoma cell lines MDA-MB-468, MDA-MB-231, MBA-MD-435 and MCF7 were kindly provided by Dr. Powel H. Brown (Breast Cancer Center, Baylor College of Medicine). Breast cancer cell line, MDA-MB-453 was kindly provided by Dr. Shou Jiang (Breast Cancer Center, Baylor College of Medicine). All cell lines were grown in DMEM medium supplemented with 10% fetal bovine serum (FBS), 25,000 units penicillin G, 25,000 µg streptomycin, and 131.4 mg L-Glutamine and cultured in the incubator under the condition of 95% air, 5% CO2 at 37°C [33]. Cells were seeded at 2,500 cells/cm^2 into 12-well plates. At 80% confluency, cells were washed with PBS and supplemented with fresh medium containing compound or the topoisomerase I-inhibitor, camptothecin, at 0, 0.1, 0.3, 1, 3, 10, 30, 100, 300 µM. At 24 hours, treatment was terminated by removing the medium from each well. Cells were lysed with cell lysis buffer (600 µl for 30 minutes at 25°C). Cell lysate (200 µl) was centrifuged at 200 g for 10 minutes and 20 µl of each supernatant was assayed for nucleosomes using the Cell Death Detection ELISA (Roche Applied Science) as described by the manufacturer. The percent maximum nucleosome level was calculated by dividing the nucleosome level by the maximum nucleosome level achieved in the assay and multiplying by 100. This value was plotted as a function of the log compound concentration and the best-fitting curve and EC50 value determined using 4-Parameter Logistic Model/Dose Response/XLfit 4.2, IDBS software.
(§3) Figure 5 Apoptosis induction of breast cancer cell lines by compounds; selective apoptosis of cell lines that are Stat3 dependent. MDA-MB-468 (panel A), MDA-MB-231 (panel B), MDA-MB-435 (panel C), MCF7 (panel D) and MDA-MB-453 (panel E) were seeded in 12-well plates, grown overnight then treated with the indicated compound for 24 hr. Cells were centrifuged and the supernatants assayed for nucleosome levels by ELISA. The percent maximum nucleosome level was calculated (nucleosome level ÷ maximum nucleosome level achieved in the assay ×100) and plotted as a function of the log compound concentration. The best-fitting curve was determined using 4-ParameterLogistic Model/Dose Response One Site/XLfit 4.2, IDBS software and was used to determine the EC50 value (Table 3).

The subject of assay [4] is MDA-MB-435. The description is as above. The assay is classed as cell-based. Conditions: Homo sapiens, 24 hr, read-out: EC50 apoptosis induction. The procedure: as §2, §3
Assay [5] has as its system MDA-MB-231. The description is as above. The class given is cell-based. The following applies: Homo sapiens, 24 hr, read-out: EC50 apoptosis induction. The procedure:
as §2, §3

For assay [6], the system named is MDA-MB-468. The description is as above. The class given is cell-based. The following applies: Homo sapiens, 24 hr, read-out: EC50 apoptosis induction. The procedure:
as §2, §3

For assay [7], the system named is MDA-MB-453. Described as above. The assay is classed as cell-based. Conditions: Homo sapiens, 24 hr, read-out: EC50 apoptosis induction. The procedure: as §2, §3
Assay [8] has as its target Stat3 (Homo sapiens, UniProt P40763). The experiment in a line: Stat3/pY-peptide binding assay (SPR, BIAcore). The following applies: recombinant Stat3 500 nM; immobilized EGFR Y1068 phosphododecapeptide; 25°C; read-out: SPR IC50, inhibition of Stat3 binding to pY peptide ligand. The procedure: A control (Stat3 with DMSO but without compound) was run at the beginning and the end of each cycle (40 sample injections) to ensure that the integrity of the sensor chip was maintained throughout the cycle run. The average of the two controls was normalized to 100% and used to evaluate the effect of each compound on Stat3 binding. Responses were normalized by dividing the value at 2 min by the response obtained in the absence of compounds at 2 min and multiplying by 100.

Sequence of Stat3 (P40763 whole entry, species assumed): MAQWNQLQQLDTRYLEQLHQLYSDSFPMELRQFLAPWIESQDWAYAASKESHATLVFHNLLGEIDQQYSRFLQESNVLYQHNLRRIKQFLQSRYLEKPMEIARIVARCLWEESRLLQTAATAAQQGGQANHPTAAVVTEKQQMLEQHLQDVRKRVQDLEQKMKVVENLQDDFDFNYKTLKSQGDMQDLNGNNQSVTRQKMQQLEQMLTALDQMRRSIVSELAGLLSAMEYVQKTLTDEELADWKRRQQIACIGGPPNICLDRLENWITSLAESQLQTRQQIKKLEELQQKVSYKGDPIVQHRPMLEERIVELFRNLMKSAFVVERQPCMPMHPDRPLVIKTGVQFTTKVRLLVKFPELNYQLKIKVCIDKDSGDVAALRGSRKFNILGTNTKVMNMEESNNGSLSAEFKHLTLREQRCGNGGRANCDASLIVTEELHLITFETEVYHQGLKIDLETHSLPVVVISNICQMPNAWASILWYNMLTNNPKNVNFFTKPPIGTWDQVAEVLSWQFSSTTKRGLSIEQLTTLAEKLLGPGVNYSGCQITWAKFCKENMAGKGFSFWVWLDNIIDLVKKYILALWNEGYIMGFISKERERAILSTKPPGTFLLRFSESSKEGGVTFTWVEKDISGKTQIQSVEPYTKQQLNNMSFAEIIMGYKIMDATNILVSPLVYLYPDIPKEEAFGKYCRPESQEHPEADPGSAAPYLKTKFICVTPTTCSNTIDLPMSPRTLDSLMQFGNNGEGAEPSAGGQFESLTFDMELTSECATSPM

With `O=C(O)c1ccc(C=CC(=O)c2ccc3c(c2)OCCO3)cc1` [Cpd3, 4-[3-(2,3-dihydro-1,4-benzodioxin-6-yl)-3-oxo-1-propen-1-yl]benzoic acid], the IC50 came to 91 µM in assay [1] and 447 µM in assay [8]. In addition, in assay [2], the “Block of IFN-γ-stimulated Stat1 phosphorylation” value is reported as “did not”. Further, the EC50 in assay [3] was more than 300 µM; in assay [4] it was 16.5 µM; in assay [5], 26.9 µM; in assay [6], 2.28 µM; in assay [7], more than 300 µM.

Values taken from paper PMC2653189 (PLoS ONE, 2009).
